Measurements: patent US20040138137A1, “Alloferons - immunomodulatory peptides” (Entopharm Co., Ltd., priority 1999, published 2004)
Where two headings read alike, the source gives them in different places. Marks after values point to notes of the source that are not given here. Ends that are not written are not given here.

How the values were obtained:
[1] = test system: human influenza virus A strain A/Aichi/2/68 (cerotype H3N2); type: in vivo, mice
[2] = Subacute and chronic toxicity in rats; type: in vivo; settings: 0.2, 2 and 20 mg/kg once a day during 90 days
E. coli test-line PQ37 = assay: DNA SOS-reparation; type: cell-based
mouse germ cells = assay: Dominant lethal mutations in the mouse germ cells; type: in vivo; settings: 15 mg/kg
[3] = Toxicity evaluation, panel of in vitro and in vivo models (overall statement); settings: in vivo and in vitro studies
Procedure: The toxicity of alloferon was tested using a panel of in vitro and in vivo models.

[4] = therapeutic and 10-fold administration
[5] = test system: peripheral blood lymphocytes (PBL) in cancer patients; A431; assay: PBL cytotoxicity in cancer patients, A431 targets; settings: for Cytotoxicity index, %: A431, lymphocyte:target 20:1
Procedure: (§1) H3-uridine labeled K562 human leukemia cells were used as targets for a cytotoxic lymphocytes' attack. […] Then the proportion of killed and normal target cells and the corresponding cytotoxicity indices were determined in control and experimental groups.
(§2) The lymphocytes were diluted up to 2×10^6 cells/ml and immediately used for the cytotoxicity analysis.
(§3) Two kinds of target cells were used in the study simultaneously: the K562 cell line originated from erythromyeloid leukemia cells and the A431 cell line originated from the solid colorectal tumor. The proportion of lymphocytes and target cells (E/T ratio) in the trial was 20:1.

[6] = test system: peripheral blood lymphocytes (PBL) in healthy donors; K562 cell line; assay: PBL cytotoxicity in healthy donors, K562 targets; settings: for Cytotoxicity index, M ± m, %: healthy donor 16, K562, 5 ng/ml, lymphocyte:target 20:1, control −3.5 ± 7.4; for Donors responding by statistically approved increase of cytotoxic activity against K562 or A431: out of 17 healthy donors
Procedure: as §1, §2, §3

[7] = therapeutic and 10-fold administration; remark: listed apart in the source
Acute toxicity in rats = type: in vivo
[8] = test system: human peripheral blood lymphocytes; K562 cancer cells; assay: Cytotoxic activity of human peripheral blood lymphocytes against K562 cancer cells
Procedure: as §1, §2

[9] = subcutaneous injection 1.5 and 15 mg/kg into pregnant rats
Acute toxicity in mice = type: in vivo; settings: 500-6000 mg/kg in mice
[10] = test system: mouse spleen lymphocytes; K562 human leukemia cells
Procedure: as §1

[11] = therapeutic and 10-fold administration; remark: listed apart in the source
Salmonella tiphimurium = assay: Ames test; type: cell-based; settings: 0.1-1000 microgram/Petri dish; 3 test line
mouse bone marrow cells = settings: single dose 0.5 and 15 mg/kg and fivefold dose 0.5 mg/kg
fat cells = settings: therapeutic and 10-fold administration
[12] = test system: peripheral blood lymphocytes (PBL) in cancer patients; K562; settings: 18 cancer patients; for Positive responses proportion, K562 or A531: either target
Procedure: as §1, §2, §3

[13] = test system: peripheral blood lymphocytes (PBL) in healthy donors; A431 cell line; settings: 17 healthy donors
Procedure: as §1, §2, §3

[14] = test system: human peripheral blood lymphocytes; A431 tumor cells; assay: Cytotoxic activity of human PBL against A431 tumor cells, alloferon 1 analogs; settings: 5 ng/ml; A431 targets; control −6.0 ± 8.1
Procedure: The mononuclear fraction isolated from the blood of healthy donors and target cell of the A431 cell line were co-incubated in the presence of one of the preparations: alloferon 1, alloferon 3, alloferon 4 or interferon-alpha 2b (positive control). The preparation's concentration in all cases was 5 ng/ml. Cytotoxicity index excess over the untreated control was used as the efficacy criterion.

[15] = patient 11, Uterus cancer, control 93.3 ± 1.0
[16] = patient 14, Non-Hodgkin lymphoma, control −40.0 ± 20.5
[17] = 17 healthy donors, K562 or A431

## CC(N)C12CC3CC(CC(C3)C1)C2 (stereo not drawn) [Remantadin]
[1]; 1000 microgram per mouse per os, control 65
  Mortality 10 days after virus inoculation, %: 5*** %
[1]; mouse, in vivo, sc
  Protection from lethal pulmonary lesions caused by the influenza virus: effectively protected

## HGVSGHGQHGVHG [Alloferon 1]
[2]
  Subacute and chronic toxicity, mortality: None animal died during 90 day period.
  Subacute and chronic toxicity, physiological, hematological, biochemical, pathomorphological and histological data: testicles, ovary) data did not show negative changes
E. coli test-line PQ37
  DNA SOS-reparation, DNA-damaging activity: Alloferon has no DNA-damaging activity in the E. coli
Mouse germ cells
  Dominant lethal mutations in the mouse germ cells: Alloferon in the dose 15 mg/kg did not induce
[3]; listed as Alloferon
  Overall toxicity (words): practically nontoxic
[3]; listed as alloferon
  Overall toxicity (words): No signs of acute or chronic toxicity
[3]; listed as alloferon 1
  Overall toxicity (words): Neither an acute nor a chronic toxicity
[4]
  Conjunctive probe: The reaction was not found under alloferon
[5]; cancer patients
  Effective in vitro concentration, stimulation of peripheral blood lymphocytes' cytotoxic activity in cancer patients: 5 ng/mL
[5]; [15]
  Cytotoxicity index, %: 94.3 ± 0.4%
[5]; [16]
  Cytotoxicity index, %: 15.3 ± 4.8 %
[6]
  Cytotoxicity index, M ± m, %: 18.5 ± 1.7 %
  Donors responding by statistically approved increase of cytotoxic activity against K562 or A431: 10 donors
[7]
  Reaction of delayed hypersensitivity: The reaction was not found under alloferon
Acute toxicity in rats; 300-5000 mg/kg in rats
  Acute toxicity, animal growth, feeding, macroscopical structure of organs, injection place: highest dose. No changes in animal growth, feeding,
Acute toxicity in rats; rats
  Toxic/therapeutic dose ratio: ratio >35700 times
Acute toxicity in rats; single subcutaneous and intragastric administration, 300-5000 mg/kg in rats
  Acute toxicity, mortality: Mortality was not registered in any dose including
10-fold therapeutic dose, registered in 1 male, 12 guinea pigs
  Anaphylactic shock: dosage. Minimal response (short term unrest, nose
Therapeutic dosage, guinea pigs
  Anaphylactic shock: No signs of anaphylaxy were found at therapeutic
[8]
  Concentration from which PBLs' cytotoxicity against K562 was significantly increased: ≥ 0.0005 nanogram/ml
  Effective in vitro concentration, stimulation of human peripheral blood lymphocytes' cytotoxic activity: 0.0005 to 500 ng/mL
[9]
  Embriotoxicity and influence on the reproductive function: Alloferon administration did not cause negative
Acute toxicity in mice
  Acute toxicity, animal growth, feeding, macroscopical structure of organs, injection place: highest dose. No changes in animal growth, feeding,
Acute toxicity in mice; single subcutaneous and intragastric administration
  Acute toxicity, mortality: Mortality was not registered in any dose including
[10]
  Effective in vitro concentration, stimulation of mouse spleen lymphocytes' cytotoxic activity: 0.05 to 50 ng/mL
[11]
  Immune complexes reaction: The reaction was not found under alloferon
Salmonella tiphimurium
  Ames test, gene mutations: microgram/Petri dish did not induce gene mutations
Mouse bone marrow cells
  Chromosome aberrations in the mouse bone marrow cells: fivefold dose 0.5 mg/kg did not induce chromosome
Fat cells
  Indirect reaction of fat cells degranulation: Fat cells degranulation rate was not changed under

## Interferon-alpha 2b
[5]; 18 cancer patients
  Positive responses proportion, A431: 8/18 = 44%
[5]; [15]
  Cytotoxicity index, %: 93.5 ± 0.9%
[5]; [16]
  Cytotoxicity index, %: 26.0 ± 8.9 %
[12]; K562 or A431
  Positive responses coincidence: Donors selectively sensitive to the preparation: 4/18 = 22%
  Positive responses coincidence: Interferon and alloferon sensitive donors: 7/18 = 38%
[12]; listed as Interferon
  Positive responses proportion, K562 or A531: 10/18 = 56%
[12]; listed as interferon
  Positive responses proportion, K562 or A531: 56%
[12]; positive response = statistically significant increase of lymphocyte cytotoxicity index
  Positive responses proportion, K562: 6/18 = 33%
[6]; [17]
  Positive responses coincidence: Donors selectively sensitive to the preparation: 1/17 = 6%
  Positive responses coincidence: Interferon and alloferon sensitive donors: 9/17 = 53%
[6]; 17 healthy donors, either target
  Positive responses proportion, K562 or A531: 10/17 = 59%
[6]; 17 healthy donors, positive response = statistically significant increase of lymphocyte cytotoxicity index
  Positive responses proportion, K562: 7/17 = 41%
[6]
  Cytotoxicity index, M ± m, %: 5.0 ± 4.7%
  Donors responding by statistically approved increase of cytotoxic activity against K562 or A431: 10 donors
[13]
  Positive responses proportion, A431: 4/17 = 24%
[8]; 5 ng/ml
  Efficacy compared to alloferon at 0.05-0.5 ng/ml: less effective

## VSGHGQHGVH [Alloferon 3]
[14]
  Average cytotoxicity index, M ± m, %: 60.2 ± 2.7%
